Data set [1] has as its system L. infantum axenic amastigotes. Briefly: Antileishmanial activity on L. infantum axenic amastigotes. The conditions noted are these: for Activity toward L. infantum (in words): axenic amastigotes. The format is cell-based, Leishmania infantum. How it is done: Experiments were performed at room temperature
The supporting electrolyte
The redox potentials measured (V/SCE) correspond […]
in a ventilated flask to transform promastigotes into axenic amastigotes. The amastigote stage was checked both by electron microscopy (short flagellum with small bulbous tip extending beyond a spherical cell body) and RT-PCR for confirming the overexpression of ATG8 and amastin genes in amastigotes, compared to promastigotes. The effects of the tested compounds on the growth of L. infantum axenic amastigotes were assessed as follows. L. infantum amastigotes were incubated at a density of 2 × 10^6 parasites/mL in sterile 96-well plates with various concentrations of compounds dissolved in DMSO (final concentration less than 0.5% v/v), in duplicate. Appropriate controls DMSO, amphotericin B, miltefosine and fexinidazole (reference drugs purchased from Sigma Aldrich) were added to each set of experiments. After a 48 h incubation period at 37 °C, each plate-well was then microscopically-examined to detect any precipitate formation. To estimate the luciferase activity of axenic amastigotes, 80 µL of each well were transferred to white 96-well plates, Steady Glow® reagent (Promega) was added according to manufacturer's instructions, and plates were incubated for 2 min. The luminescence was measured in Microbeta Luminescence Counter (PerkinElmer). Efficient […]
metabolic activity of L. infantum amastigotes compared to control. EC 50 values were calculated by non- […]
values represent the mean of three independent experiments.
Antileishmanial activity on L. donovani promastigotes NTR1 and NTR2 over-expressing strain.
Cell lines and culture conditions: The clonal Leishmania donovani cell line LdBOB (derived from MHOM/SD/62/1S-CL2D) was grown as promastigotes at 26 °C in modified M199 media, as previously described.[2] LdBOB promastigotes overexpressing NTR1 (LinJ.05.0660) and NTR2 (LinJ.12.0730) were grown in the presence of nourseothricin (100 µg/mL). To examine the effects of test compounds on growth, triplicate promastigote cultures were seeded with 5 × 10^4 parasites/mL. Parasites were grown in 10 ml cultures in the presence of drug for 72 h, after which 200 μL aliquots of each culture were added to 96-well plates, 50 μM resazurin was added to each well and fluorescence (excitation of 528

On the set-up of data set [2]: method as in PMID 21200426. Particulars: cited from earlier work.
In data set [3] the test system is Salmonella typhimurium strains. Particulars: cited from earlier work.
Data set [4] concerns HepG2 cell line. Particulars: human, 72 h.
Data set [5] is described as follows: Redox potentials by cyclic voltammetry in DMSO. Particulars: 13 vs hit 2; 9, hit 1 and 2 vs pharmacophore; 10 vs 9; 5 vs 2.
The subject of data set [6] is T. brucei brucei trypomastigotes. Nature of the data set: Antitrypanosomal activity on T. brucei brucei trypomastigotes (AnTat 1.9, Alamar Blue). The format is cell-based, Trypanosoma brucei brucei. Particulars: for Selectivity index regarding T. b. brucei: HepG2 CC50 versus T. b. brucei EC50; for Antitrypanosomal activity against T. b. brucei (in words): trypomastigotes; for EC50: Trypanosoma brucei, read-out: T. b. brucei trypomastigotes EC50.

Another data set can be described thus: in vitro. Particulars: human, Cytotoxicity HepG2 CC50.
Data set [7] deals with HepG2 cell line. Particulars: read-out: Cytotoxicity HepG2 CC50, cited from earlier work.
Data set [8] can be described thus: PAMPA assay using a blood-brain barrier (BBB) model. The format is in vitro ADME. The conditions noted are these: tested concentration 100 µM, pH 7.4.
The test system of data set [9] is L. infantum axenic amastigotes. Particulars: previously reported pharmacophore and hit compounds; read-out: L. infantum axenic amastigote EC50; cited from earlier work.
Data set [10] in a line: In vivo pharmacokinetics in the mouse after oral administration. Particulars: oral 25 mg/kg. How it is done: Finally, the in vivo pharmacokinetic parameters were determined in the mouse, after oral administration at 25 mg/kg in a mixture of 5% Tween 80 and 95% of 0.5% carboxymethylcellulose in water, by using the QuEChERS method.[32] Monolix Lixoft software was used to analyze the data by a noncompartmental model to fit pharmacokinetics parameters.[33] […]
acetonitrile with 0.1% formic acid. […] The […]
decrease to 2% (B); 2.6 < t < 4 min, 2% (B). Carbamazepine, oxazepam, warfarine and diclofenac are […]
The unbound fraction (fu) is […]
internal standard (propranolol 200 nM).
= 350 μL and Vplasma = 200 μL).
All animals were kept under the same
3, 6, 9, 12, and 24h after administration. Blood samples were stored frozen until required for assay.
Sample preparation for spectrometry analysis
Megazol was used like the internal standard (IS). LC-MS Optima grade Acetonitrile (ACN) and […]
sesquihydrate) were supplied by VWR.

Data set [11] deals with Trypanosoma brucei brucei trypomastigotes wild type. Briefly: T. brucei trypomastigotes, wild type strain (S427). The format is cell-based. How it is done: Cells overexpressing NTR were
Cell densities were determined after culture for 72 h, as previously described. EC50 values were determined using GraFit as described above.
Cytotoxic evaluation on HepG2 cell line.
Briefly, cells (1 × 10^5 cells/mL) in 100
Each plate-well was then microscope-examined […]
for 2 h at 37 °C and 5% CO2. […]
added to dissolve the resulting formazan crystals. Plates were shaken vigorously (300 rpm) for 5 min.

Data set [12] can be described thus: Tolerance in the mouse after oral administration.
For data set [13], the system named is HepG2 cell line. Briefly: Alkaline comet assay on HepG2 cells. The format is cell-based, human. The conditions noted are these: HepG2, 1 and 10 μM, 2 or 72 h of incubation. The text has this: Even though many safe nitroaromatic molecules are today on the market (for example, antiprotozoal 5-nitroimidazoles such as metronidazole, several antihypertensive dihydropyridines like nicardipine, some benzodiazepines like loprazolam, anti-Parkinson’s catechol O-methyltransferase (COMT) inhibitors like entacapone, antiandrogens like flutamide, anti-inflammatory nimesulide, immunomodulating azathioprine, anticoagulant acenocoumarol, anthelminthic niclosamide, etc.) or in clinical trials (for instance, delamanid), drugs including a nitroaromatic moiety suffer from a bad reputation as possible mutagenic or genotoxic molecules, which narrows their pharmaceutical development.[29] The Ames test is the most commonly used assay to evaluate the mutagenic potential of compounds, using Salmonella typhimurium strains. […] Thus it is accepted that the comet assay or the micronucleus assay are more pertinent methods to evaluate the genotoxic potential of nitroaromatic compounds. For example, fexinidazole is positive in the Ames test but negative in the micronucleus assay.[31] A comet assay was then performed on the HepG2 cell line with hit compound 12, using methylmethanesulfonate (MMS) as a positive control (see the Supporting Information).
Electrophoresis (with a solution which contained
28 V (resulting in 0.8 V/cm).
After staining with SYBR®
Prague Czech Republic). […] The median […]

Data set [14] deals with T. brucei brucei trypomastigotes. Particulars: previously reported pharmacophore and hit compounds; cited from earlier work.
Where [15] appears, read: female, Swiss, whole blood of mouse, n = 4.

Where “and” joins values, the source holds several entries; their conditions need not be identical. Identical values can stand only once. Entries after “also recorded” stand apart in the source; their conditions may differ. Like-named read-outs stand apart in the source and are kept apart here.

`Nc1cc(C(F)(F)F)cc2cc(Br)c(=O)[nH]c12` [Compound 8]: the “Activity toward L. infantum (in words)” value in data set [1] is “inactive”.

Regarding `CSc1ccc(OCc2ncc([N+](=O)[O-])n2C)cc1` [Fexinidazole], in data set [2], the Micronucleus assay entry was “negative”. The Ames test result in data set [3] is recorded as “positive”.

As usually defined, the CC50 is the concentration giving 50% cytotoxicity. With `COc1cccc2c1C(=O)c1c(O)c3c(c(O)c1C2=O)C[C@@](O)(C(=O)CO)C[C@@H]3O[C@H]1C[C@H](N)[C@H](O)[C@H](C)O1` [Doxorubicin, reference compound], in the data set with HepG2 cell line [4], it took 0.2 ± 0.02 µM to reach half-maximal cytotoxicity (CC50).

In the case of `O=c1ccc2cc(Br)cc([N+](=O)[O-])c2[nH]1` [Compound 9], in data set [5], the “Shift of the E° value versus the comparator compound” value (“Shift” below) is listed as “+0.14 V”. Moreover, the “Selectivity index regarding T. b. brucei” value in data set [6] is given as over 200. For the same molecule, in data set [6] (T. b. brucei trypomastigotes), the “Times more active than 3-bromo-position isomer (hit 1)” value amounted to 27 and the “Times more active than the 8-nitroquinolin-2(1H)-one pharmacophore” value turned out to be 334. For the same molecule, the CC50 at 72 h in the data set “in vitro” lay in the range of 28 to 41 µM.

`COc1ccc2cc(C(F)(F)F)cc([N+](=O)[O-])c2n1` [Compound 5]: the “Shift” value in data set [5] is given as −0.36 V. The “Activity toward L. infantum (in words)” value in data set [1] was “inactive”.

Take `O=c1[nH]c2ccc(C(F)(F)F)cc2cc1Br` [Compound 4]: in data set [6], the “Antitrypanosomal activity against T. b. brucei (in words)” value (shortened to “Antitrypanosomal activity”) is “inactive”. For the same molecule, the “Activity toward L. infantum (in words)” value in data set [1] is “inactive”.

The term EC50 denotes the concentration that produces a half-maximal response. Regarding `O=c1[nH]c2c([N+](=O)[O-])cc(Br)cc2cc1Br` [Compound 10], the “Shift” value in data set [5] is “+0.03 V”. For the same molecule, in data set [6], the “Selectivity index regarding T. b. brucei” value was over 200 and the EC50 lay within 0.012 to 0.05 µM. The molecule also returned a CC50 at 72 h in the data set “in vitro” of 17 µM.

Regarding `O=c1[nH]c2ccc(C(F)(F)F)cc2cc1Cl` [Compound 3], in data set [6], the “Antitrypanosomal activity” value is “inactive”. Besides, in data set [1], the “Activity toward L. infantum (in words)” value is “inactive”.

Consider `O=c1ccc2cc(C(F)(F)F)ccc2[nH]1` [Compound 1], for which, in data set [6], the “Antitrypanosomal activity” value is “inactive”. Further, the “Activity toward L. infantum (in words)” value in data set [1] is “inactive”.

For the molecule `O=c1[nH]c2c([N+](=O)[O-])cc(Cl)cc2cc1Cl` [Compound 11], the “Selectivity index regarding T. b. brucei” value in [6] was over 200.

On to `O=c1[nH]c2c([N+](=O)[O-])cccc2cc1Cl` [A, 3-chloro-8-nitroquinolin-2(1H)-one], for which the CC50 in the data set with HepG2 cell line [7] (3-chloro analogue A) is 85 ± 4 µM.

Regarding `O=c1[nH]c2c([N+](=O)[O-])cc(C(F)(F)F)cc2cc1Br` [Compound 7], the “Selectivity index regarding T. b. brucei” value in [6] is over 200. The “Selectivity index (antileishmanial)” value in [1] (regarding L. infantum, HepG2) is on record as over 10. For the same molecule, in [8], the “BBB PAMPA assay Pe” value is 45.03 ×10⁻⁶ cm/s and 45.03 ± 17.05 ×10⁻⁶ cm/s.

`O=C(O)c1ccc(-c2cc3cccc([N+](=O)[O-])c3[nH]c2=O)cc1` [Hit 2]: the EC50 in data set [9] was over 100 µM.

With `O=c1ccc2cc(C(F)(F)F)cc([N+](=O)[O-])c2[nH]1` [Compound 2], the “Shift” value in data set [5] is reported as “+0.15 V”. In “in vitro”, this molecule displayed a CC50 at 72 h of 28 to 41 µM.

A word on the half-life: it is the time needed for the level to fall by half in the phase considered. What is called AUC(0-inf) is the area under the concentration-time curve extrapolated to infinity. Usually Cmax stands for the maximum level reached in the sampled fluid or tissue. Usually Tmax stands for the time at which the peak concentration occurs. Turning to `O=c1[nH]c2c([N+](=O)[O-])cc(Br)cc2cc1Cl` [Compound 12], the half-life at 24 h in data set [10] (female, Swiss, plasma, mouse, read-out: Plasmatic half life (converted)) is 2.9 h. Moreover, in [10] (setting [15]), the AUC(0-inf) was 123 µg·h/mL, the highest level (Cmax) was 17400 ng/mL, the Tmax worked out at 1.5 h and the half-life is 2.87 h. In data set [10] (whole blood of mouse, n = 4), the Clairance was 0,00768 mL/h. Also, the “Activity compared with nifurtimox against T. b. brucei” value in [11] is given as “six times more active than nifurtimox”. Moreover, the “Times more active than 3-chloro-analogue A” value in data set [6] (T. b. brucei trypomastigotes) is 100. Moreover, the EC50 in data set [6] is 0.012 to 0.05 µM. Also, the “Times more cytotoxic than reference drugs” value in the data set with HepG2 cell line [4] is “about 10”. The “Tolerance, repeated dose” value in data set [12] (25 mg/kg once daily for 5 days) is listed as “well tolerated without any adverse effect noted”. Besides, the “Organ lesions after euthanasia” value in data set [12] (kidney, liver, brain, heart, lung) is recorded as “no lesions were found”. The “Tolerance, oral dose” value in data set [12] (once daily oral dose at 25 or 50 mg/kg) is on record as “well tolerated”. In addition, in the data set with HepG2 cell line [13], the “Comet assay (genotoxicity)” value is reported as “not genotoxic; also recorded: lack of genotoxicity; also recorded: Negative”. The “BBB PAMPA assay Pe” value in data set [8] is 40.51 ×10⁻⁶ cm/s and 40.51 ± 6.93 ×10⁻⁶ cm/s.

In the case of `O=c1[nH]c2c([N+](=O)[O-])cccc2cc1Br` [Hit 1], the CC50 in the data set with HepG2 cell line [7] (previously reported pharmacophore and hit compounds) is 92 ± 13 µM. For the same molecule, in data set [5], the “Shift” value was “+0.09 V”. Also, the EC50 in [14] was 1.9 ± 0.4 µM; in [9], 7.1 ± 1.5 µM.
